Measured values as given in patent US6849650B2, “Heterocyclic compounds, pharmaceutical compositions comprising same, and methods for inhibiting β-amyloid peptide release and/or its synthesis by use of such compounds” (Athena Neurosciences, Inc., priority 1998, dated 2005).

- melting point: 158 to 160 °C
SMILES: COC(=O)C1(Cc2ccccc2)CNC(C(C)NC(=O)Cc2cc(F)cc(F)c2)=N1 (stereo not shown) [Example 5, 2-[1-(3,5-difluorophenylacetamido)ethyl]-4-methoxycarbonyl-4-phenylmethyl-2-imidazoline]
